# Several values for one entry are separate records, joined by “and”; a condition that tells them apart may be missing. Equal entries are not always repeated.
# Experiments:
# [1] = test system: T. gondii β-gal tachyzoites; test: Primary screening: T. gondii β-gal proliferation in HFF monolayers at 0.1 and 1 µM (CPRG readout); format: cell-based, Toxoplasma gondii; details: tachyzoites cultured in HFF, 72 h, relative to DMSO control
# Experimental: (§1) The screening cascade for the compounds was described in former studies. All compounds were prepared as 1 mM stock solutions from powder, in dimethyl sulfoxide (DMSO, Sigma, St. Louis, MO, USA). For in vitro activity and cytotoxicity assays, HFF were seeded at 5 × 10^3/well and allowed to grow to confluence in phenol-red free culture medium at 37 °C and 5% CO2. T. gondii tachyzoites were released from host cells, and HFF monolayers were infected with freshly isolated parasites (1 × 10^3/well), and compounds were added concomitantly with infection.
# In the primary screening, HFF monolayers infected with T. gondii β-gal were treated with 0.1 and 1 µM of each compound, or the corresponding concentration of DMSO (0.01 or 0.1%, respectively) as controls and were incubated for 72 h at 37 °C/5% CO2 as previously described.
# (§2) To measure the activity of the tested compound on T. gondii β-gal parasites, after a period of 72 h of culture at 37 °C/5% CO2, the culture medium was aspirated, and cells were permeabilized by adding 90 μL PBS (phosphate buffered saline) with 0.05% Triton X-100. Next, 10 μL of 5 mM chlorophenolred-β-D-galactopyranoside (CPRG; Roche Diagnostics, Rotkreuz, Switzerland, substrate for the β-galactosidase) in PBS were added. Release of chlorophenol red was measured at 570 nm using an EnSpire® multimode plate reader (PerkinElmer, Inc., Waltham, MA, USA). A 100% proliferation of T. gondii β-gal was assigned to control parasites treated only with DMSO. For the primary screening at 0.1 and 1 μM, the activity was measured as the release of chlorophenol red over time and was calculated as percentage from the respective DMSO treated control, which represented 100% of T. gondii β-gal growth.
# [2] = test system: T. gondii β-gal tachyzoites; test: Dose-response study (IC50) against T. gondii β-gal tachyzoites; format: cell-based, Toxoplasma gondii; details: 8 serial concentrations 0.007-1 µM, 72 h
# Experimental: as §1
# For the dose-response study (IC50 values), measurements for T. gondii β-gal were performed. The selected compounds were added concomitantly with infection in 8 serial concentrations 0.007, 0.01, 0.03, 0.06, 0.12, 0.25, 0.5, and 1 μM.
# as §2
# For the IC50 assays, the activity measured as the release of chlorophenol red over time was proportional to the number of live parasites down to 50 per well as determined in pilot assays. IC50 values were calculated after the logit-log-transformation of relative growth and subsequent regression analysis. All calculations were performed using the corresponding software tool contained in the Excel software package (Microsoft, Redmond, WA, USA).
# [3] = test system: human foreskin fibroblasts (HFF); test: Cytotoxicity in non-infected HFF by alamarBlue assay; format: cell-based
# Experimental: as §1
# Cytotoxicity assays using uninfected confluent HFF host cells were performed by the alamarBlue assay as previously reported. Confluent HFF monolayers in 96 well-plates were exposed to 0.1, 1, and 2.5 μM of each compound. Non-treated HFF as well as DMSO controls (0.01%, 0.1%, and 0.25%) were included. After 72 h of incubation at 37 °C/5% CO2, the medium was removed, and the plates were washed once with PBS. Resazurin suspended in PBS to a final concentration of 0.01 g/L was added to each well (200 μL/well). Fluorescence was measured at excitation wavelength 530 nm and emission wavelength […] using an EnSpire® multimode plate reader (PerkinElmer, Inc, Waltham, MA, USA). The cytotoxicity values were calculated as percentage of the respective DMSO control, which represented 100% of HFF viability.
# [4] = 0.1 µM, non-infected HFF, 72 h, relative to DMSO control, triplicate
# [5] = 2.5 µM, control 0.25% DMSO = 100%, six replicates
# [6] = 1 µM, non-infected HFF, 72 h, relative to DMSO control, triplicate
Structure (SMILES),T. gondii β-gal Growth (%) ([1]; 0.1 µM),T. gondii β-gal Growth (%) ([1]; 1 µM),IC50 [2] [µM],"HFF Viability (%) [3, 4] [%]","HFF Viability (%) [3, 5]",HFF Viability (%) ([3]; 0.1 µM),HFF Viability (%) ([3]; 1 µM),HFF Viability (%) ([3]; 2.5 µM),"HFF Viability (%) [3, 6] [%]"
C#CCCCC(=O)Nc1ccc([S+]2[Ru-]3[S+](Cc4ccc(C(C)(C)C)cc4)[Ru-]2[S+]3Cc2ccc(C(C)(C)C)cc2)cc1.Cc1ccc(C(C)C)cc1.Cc1ccc(C(C)C)cc1.[Cl-] (centres unmarked) [Compound 5],21 ± 2,0 ± 0,0.038,101 ± 0,34%,–,–,–,–
C#Cc1ccc(C(=O)Nc2ccc([S+]3[Ru-]4[S+](Cc5ccc(C(C)(C)C)cc5)[Ru-]3[S+]4Cc3ccc(C(C)(C)C)cc3)cc2)cc1.Cc1ccc(C(C)C)cc1.Cc1ccc(C(C)C)cc1.[Cl-] (centres unmarked) [Compound 6],112 ± 1,6 ± 1,0.288,95 ± 1,17%,–,–,–,–
C#CCOC(=O)Cc1ccc([S+]2[Ru-]3[S+](Cc4ccc(C(C)(C)C)cc4)[Ru-]2[S+]3Cc2ccc(C(C)(C)C)cc2)cc1.Cc1ccc(C(C)C)cc1.Cc1ccc(C(C)C)cc1.[Cl-] (centres unmarked) [Compound 7],19 ± 1,0 ± 0,0.289,100 ± 2,51%,–,–,–,–
CC(C)(C)c1ccc(C[S+]2[Ru-]3[S+](Cc4ccc(C(C)(C)C)cc4)[Ru-]2[S+]3c2ccccc2CN=[N+]=[N-])cc1.Cc1ccc(C(C)C)cc1.Cc1ccc(C(C)C)cc1.[Cl-] (centres unmarked) [Compound 9],–,1 ± 1,0.048,96 ± 1,11%,–,–,–,–
CC(C)(C)c1ccc(C[S+]2[Ru-]3[S+](Cc4ccc(C(C)(C)C)cc4)[Ru-]2[S+]3c2ccc(N=[N+]=[N-])cc2)cc1.Cc1ccc(C(C)C)cc1.Cc1ccc(C(C)C)cc1.[Cl-] (centres unmarked) [Compound 10],–,1 ± 0,0.064,94 ± 1,38%,–,–,–,–
"Nc1ncnc2c1ncn2CCO [Compound 14A, 9-(2-hydroxyethyl)adenine]",104 ± 2,75 ± 11,–,–,–,–,–,–,–
CC(C)(C)c1ccc(C[S+]2[Ru-]3[S+](Cc4ccc(C(C)(C)C)cc4)[Ru-]2[S+]3c2ccccc2Cn2cc(Cn3ccc(=O)[nH]c3=O)nn2)cc1.Cc1ccc(C(C)C)cc1.Cc1ccc(C(C)C)cc1.[Cl-] (centres unmarked) [Compound 19],–,–,0.46,93 ± 2,50%,–,–,–,–
Cc1ccc(C(C)C)cc1.Cc1ccc(C(C)C)cc1.Cc1cn(Cc2cn(Cc3ccccc3[S+]3[Ru-]4[S+](Cc5ccc(C(C)(C)C)cc5)[Ru-]3[S+]4Cc3ccc(C(C)(C)C)cc3)nn2)c(=O)[nH]c1=O.[Cl-] (centres unmarked) [Compound 20],102 ± 0,1 ± 0,0.363,–,–,100 ± 2,71 ± 2,39,–
CC(C)(C)c1ccc(C[S]2[Ru]3[S](Cc4ccc(C(C)(C)C)cc4)[Ru+]2[S]3c2ccccc2Cn2cc(Cn3ccc(N)nc3=O)nn2)cc1.Cc1ccc(C(C)C)cc1.Cc1ccc(C(C)C)cc1.[Cl-] [Compound 21],–,0 ± 0,0.046,–,–,109 ± 2,89 ± 1,38,–
CC(C)(C)c1ccc(C[S]2[Ru]3[S](Cc4ccc(C(C)(C)C)cc4)[Ru+]2[S]3c2ccccc2Cn2cc(Cn3cnc4c(N)ncnc43)nn2)cc1.Cc1ccc(C(C)C)cc1.Cc1ccc(C(C)C)cc1.[Cl-] [Compound 22],79 ± 3,1 ± 0,0.108,–,–,102 ± 0,77 ± 2,52,–
CC(C)(C)c1ccc(C[S]2[Ru]3[S](Cc4ccc(C(C)(C)C)cc4)[Ru+]2[S]3c2ccc(-n3cc(Cn4ccc(=O)[nH]c4=O)nn3)cc2)cc1.Cc1ccc(C(C)C)cc1.Cc1ccc(C(C)C)cc1.[Cl-] [Compound 23],–,–,0.426,100 ± 1,64%,–,–,–,–
CC(C)(C)c1ccc(C[S]2[Ru]3[S](Cc4ccc(C(C)(C)C)cc4)[Ru+]2[S]3c2ccc(-n3cc(Cn4ccc(N)nc4=O)nn3)cc2)cc1.Cc1ccc(C(C)C)cc1.Cc1ccc(C(C)C)cc1.[Cl-] [Compound 25],82 ± 6,–,–,–,–,94 ± 9,91 ± 8,–,–
CC(C)(C)c1ccc(C[S]2[Ru]3[S](Cc4ccc(C(C)(C)C)cc4)[Ru+]2[S]3c2ccc(-n3cc(Cn4cnc5c(N)ncnc54)nn3)cc2)cc1.Cc1ccc(C(C)C)cc1.Cc1ccc(C(C)C)cc1.[Cl-] [Compound 26],109 ± 6,–,0.178,–,–,109 ± 2,76 ± 0,45,–
NC(=O)c1ccc(-c2cn(Cc3cc(=O)[nH]c(=O)[nH]3)nn2)cc1 [Compound 29],–,–,–,–,–,101 ± 1,–,–,–
CC(C)(C)c1ccc(C[S]2[Ru]3[S](Cc4ccc(C(C)(C)C)cc4)[Ru+]2[S]3c2ccc(CC(=O)OCc3cn(Cc4cc(=O)[nH]c(=O)[nH]4)nn3)cc2)cc1.Cc1ccc(C(C)C)cc1.Cc1ccc(C(C)C)cc1.[Cl-] [Compound 30],–,–,0.659,114 ± 0,97%,–,–,–,–
CC(C)(C)c1ccc(C[S]2[Ru]3[S](Cc4ccc(C(C)(C)C)cc4)[Ru+]2[S]3c2ccc(CC(=O)NCc3cn(Cc4cc(=O)[nH]c(=O)[nH]4)nn3)cc2)cc1.Cc1ccc(C(C)C)cc1.Cc1ccc(C(C)C)cc1.[Cl-] [Compound 31],–,–,–,–,–,99 ± 3,–,–,–
CC(C)(C)c1ccc(C[S]2[Ru]3[S](Cc4ccc(C(C)(C)C)cc4)[Ru+]2[S]3c2ccccc2Cn2cc(-c3ccccc3)nn2)cc1.Cc1ccc(C(C)C)cc1.Cc1ccc(C(C)C)cc1.[Cl-] [Compound 34],7 ± 0,1 ± 0,0.092,96 ± 1,highly toxic and 3%,–,–,–,70 ± 1
CC(C)(C)c1ccc(C[S]2[Ru]3[S](Cc4ccc(C(C)(C)C)cc4)[Ru+]2[S]3c2ccccc2Cn2cc(-c3ccc(CO)cc3)nn2)cc1.Cc1ccc(C(C)C)cc1.Cc1ccc(C(C)C)cc1.[Cl-] [Compound 35],1 ± 0,0 ± 0,–,–,–,89 ± 0,–,–,–
CC(C)(C)c1ccc(C[S]2[Ru]3[S](Cc4ccc(C(C)(C)C)cc4)[Ru+]2[S]3c2ccccc2Cn2cc(CO)nn2)cc1.Cc1ccc(C(C)C)cc1.Cc1ccc(C(C)C)cc1.[Cl-] [Compound 36],–,0 ± 0,0.111,115 ± 1,low toxicity and medium toxicity and 77%,–,–,–,–
CC(C)(C)c1ccc(C[S]2[Ru]3[S](Cc4ccc(C(C)(C)C)cc4)[Ru+]2[S]3c2ccc(-n3cc(-c4ccccc4)nn3)cc2)cc1.Cc1ccc(C(C)C)cc1.Cc1ccc(C(C)C)cc1.[Cl-] [Compound 37],13 ± 1,0 ± 0,0.096,99 ± 1,highly toxic and 17%,–,–,–,71 ± 0
CC(C)(C)c1ccc(C[S]2[Ru]3[S](Cc4ccc(C(C)(C)C)cc4)[Ru+]2[S]3c2ccc(-n3cc(CO)nn3)cc2)cc1.Cc1ccc(C(C)C)cc1.Cc1ccc(C(C)C)cc1.[Cl-] [Compound 38],42 ± 2,0 ± 0,0.128,–,–,104 ± 1,71 ± 1,59,–

# Reference: PMC9738179, “New Nucleic Base-Tethered Trithiolato-Bridged Dinuclear Ruthenium(II)-Arene Compounds: Synthesis and Antiparasitic Activity” (Molecules, 2022)
